According to EP4635499A1, “PHARMACEUTICAL COMPOSITION FOR VASCULAR MALFORMATIONS AND METHOD FOR CURING VASCULAR MALFORMATIONS” (ARTham Therapeutics Inc., priority 2022, dated 2024):
“And” between values parts separate entries of the source, which are not always exact repeats. Identical values can stand only once.

What was measured:
[1] = system: vascular malformation patients; experiment: Randomized double-blind study in vascular malformation patients: hyperglycemia side effect diagnosed by a physician; type: in vivo, human; conditions: 50 mg or 100 mg serabelisib once a day for 24 weeks; 35 patients; diagnosed by a physician based on test values such as a blood glucose value
Excerpt: According to an embodiment, the side effects are hyperglycemia and hypercreatinemia. According to an embodiment, the side effect is hyperglycemia. In the present Description, "hyperglycemia" is an adverse event (side effect) associated with the pharmacological action of a drug and is diagnosed by a physician based on test values such as the blood glucose level.
The efficacy was confirmed in a randomized double-blind study in vascular malformation patients. A serabelisib-containing dry syrup (contained 200 mg of serabelisib in 1 g) was administered orally for 24 weeks once a day after breakfast at an adult serabelisib dose of 50 mg or an adult serabelisib dose of 100 mg. For the pediatric patients, the administered dose was made the dose calculated based on body surface area conversion according to the Crawford formula for each of the adult doses. The primary endpoint was the response rate based on the volume change (measured by MRI) of the target lesion at the end of 24 weeks of administration.
• (1) The study is discontinued when a test value of 140 mg/dL or higher is observed for the blood glucose level (fasting) in the clinical test performed at each visit. • (2) The study is discontinued when the clinical tests performed at each visit meets all of the following criteria stipulated for each age group.

[2] = system: vascular malformation patients; experiment: Randomized double-blind study in vascular malformation patients: response rate and volume change of target lesion measured by MRI; type: in vivo, human; conditions: oral; for RESPONSE RATE AT 12 WEEKS OF ADMINISTRATION: once a day after breakfast, week 12, response = complete + partial (at least 20% reduction in target lesion volume, MRI); for VOLUME CHANGE (AVERAGE VALUE) OF TARGET LESION AT 24 WEEKS OF ADMINISTRATION / RESPONSE RATE AT 24 WEEKS OF ADMINISTRATION: once a day, week 24; for VOLUME CHANGE (AVERAGE VALUE) OF TARGET LESION AT 24 WEEKS OF ADMINISTRATION: MRI; for RESPONSE RATE AT 24 WEEKS OF ADMINISTRATION: primary endpoint
Protocol: The efficacy was confirmed in a randomized double-blind study in vascular malformation patients. A serabelisib-containing dry syrup (contained 200 mg of serabelisib in 1 g) was administered orally for 24 weeks once a day after breakfast at an adult serabelisib dose of 50 mg or an adult serabelisib dose of 100 mg. For the pediatric patients, the administered dose was made the dose calculated based on body surface area conversion according to the Crawford formula for each of the adult doses. The primary endpoint was the response rate based on the volume change (measured by MRI) of the target lesion at the end of 24 weeks of administration. In the analysis of the primary endpoint for evaluating efficacy, a complete response was defined as the disappearance of the target lesion and a partial response was defined as an at least 20% reduction in the volume of the target lesion in comparison to that at the time of the screening test. The 95% confidence interval for the response rate (the sum of complete responses and partial responses as a percentage of the total) based on the change in target lesion volume (measured by MRI) between prior to administration and the time point of completion of 24 weeks of administration, was calculated using the Clopper-Pearson method, and whether its lower limit exceeded 12.5% was checked. For the secondary endpoint, the […] based on the change in target lesion volume (measured by MRI) at the time point of completion of 12 weeks of administration was evaluated. With respect to blood vessel malformation lesions, cystic components of lymphatic malformations, lymphedema, lymph fluid, and lymphorrhea (including also intraosseous, extraosseous, and subcutaneous), which are components of vascular malformations, the target lesion detected using the T2 fat-suppressed image was selected for the target lesion and its volume was measured.

[3] = system: vascular malformation patients; experiment: Randomized double-blind study in vascular malformation patients: pain severity by Visual Analogue Scale (VAS); type: in vivo, human; conditions: for VAS AVERAGE VALUE / VAS MEDIAN VALUE: scale 0-100
Protocol: The efficacy was confirmed in a randomized double-blind study in vascular malformation patients. A serabelisib-containing dry syrup (contained 200 mg of serabelisib in 1 g) was administered orally for 24 weeks once a day after breakfast at an adult serabelisib dose of 50 mg or an adult serabelisib dose of 100 mg. For the pediatric patients, the administered dose was made the dose calculated based on body surface area conversion according to the Crawford formula for each of the adult doses. The primary endpoint was the response rate based on the volume change (measured by MRI) of the target lesion at the end of 24 weeks of administration. The severity of pain at the baseline, week 4 of administration, week 12 of administration, and week 24 of administration was evaluated (using VAS). A 10-cm straight line was drawn on the recording paper; the left end was defined as 0 and the right end was defined as 100; "0" was assigned to a condition of "pain completely absent" and "100" was assigned to a condition of "the worst pain, or a more severe pain cannot be imagined"; and inquiry was made as to where the current pain level was on the straight line and this was recorded. It was also recorded when the information about a subject was provided by someone else who was not the subject. In addition, the subjects were classified into under 15 years and 15 years and over for the age when consent was obtained, and recording paper appropriate for each age group was used.

[4] = existing therapeutic agents for vascular malformations; NPL 2, NPL 3; cited from earlier work

Nc1nc2cc(-c3ccc4ncc(C(=O)N5CCOCC5)n4c3)ccc2o1 [ART-001, serabelisib]
Hyperglycemia side effect [1]: no subject exhibited an event that was diagnosed as hyperglycemia
RESPONSE RATE AT 12 WEEKS OF ADMINISTRATION ([2]; 50 mg serabelisib (adult dose) as dry syrup, 17 subjects): 0% (0)
VOLUME CHANGE (AVERAGE VALUE) OF TARGET LESION AT 24 WEEKS OF ADMINISTRATION ([2]; 50 mg serabelisib): -2.3%
RESPONSE RATE AT 24 WEEKS OF ADMINISTRATION ([2]; 50 mg serabelisib, 17 subjects, 95% confidence interval 10.3% - 56.0% (Clopper-Pearson)): 29.4% (6) and 29.4% (5)
RESPONSE RATE AT 24 WEEKS OF ADMINISTRATION ([2]; 50 mg serabelisib, 17 subjects, 95% confidence interval 10.3% - 56.0% (Clopper-Pearson), listed as serabelisib): 29.4%
RESPONSE RATE AT 12 WEEKS OF ADMINISTRATION ([2]; 100 mg serabelisib (adult dose) as dry syrup, 18 subjects): 16.7% (3)
VOLUME CHANGE (AVERAGE VALUE) OF TARGET LESION AT 24 WEEKS OF ADMINISTRATION ([2]; 100 mg serabelisib): -12.6%
RESPONSE RATE AT 24 WEEKS OF ADMINISTRATION ([2]; 100 mg serabelisib, 18 subjects, 95% confidence interval 13.3% - 59.0% (Clopper-Pearson)): 33.3% (6)
RESPONSE RATE AT 24 WEEKS OF ADMINISTRATION ([2]; 100 mg serabelisib, 18 subjects, 95% confidence interval 13.3% - 59.0% (Clopper-Pearson), listed as serabelisib): 33.3%
VAS AVERAGE VALUE ([3]; 50 mg administration group, WEEK 4 OF ADMINISTRATION, baseline average 29.4): 20.6
VAS MEDIAN VALUE ([3]; 50 mg administration group, WEEK 4 OF ADMINISTRATION, baseline median 16.0): 6.0
VAS AVERAGE VALUE ([3]; 50 mg administration group, WEEK 12 OF ADMINISTRATION, baseline average 29.4): 21.2
VAS AVERAGE VALUE ([3]; 50 mg administration group, WEEK 24 OF ADMINISTRATION, baseline average 29.4): 16.1
VAS MEDIAN VALUE ([3]; 50 mg administration group, WEEK 24 OF ADMINISTRATION, baseline median 16.0): 4.0
VAS AVERAGE VALUE ([3]; 100 mg administration group, WEEK 4 OF ADMINISTRATION, baseline average 24.6): 15.8
VAS MEDIAN VALUE ([3]; 100 mg administration group, WEEK 4 OF ADMINISTRATION, baseline median 20.0): 2.0
VAS AVERAGE VALUE ([3]; 100 mg administration group, WEEK 12 OF ADMINISTRATION, baseline average 24.6): 15.7
VAS MEDIAN VALUE ([3]; 100 mg administration group, WEEK 12 OF ADMINISTRATION, baseline median 20.0): 2.0
VAS AVERAGE VALUE ([3]; 100 mg administration group, WEEK 24 OF ADMINISTRATION, baseline average 24.6): 12.4
VAS MEDIAN VALUE ([3]; 100 mg administration group, WEEK 24 OF ADMINISTRATION, baseline median 20.0): 8.0
average values and median values of the VAS after the treatment ([3]; both the 50 mg administration group and the 100 mg administration group, versus baseline): reduced

Cc1nc(NC(=O)N2CCC[C@H]2C(N)=O)sc1-c1ccnc(C(C)(C)C(F)(F)F)c1 [Alpelisib, alpelisib]
known side effects [4]: hyperglycemia

CO[C@H]1C[C@@H]2CC[C@@H](C)[C@@](O)(O2)C(=O)C(=O)N2CCCC[C@H]2C(=O)O[C@H]([C@H](C)C[C@@H]2CC[C@@H](O)[C@H](OC)C2)CC(=O)[C@H](C)/C=C(\C)[C@@H](O)[C@@H](OC)C(=O)[C@H](C)C[C@H](C)/C=C/C=C/C=C/1C [Sirolimus, sirolimus]
known side effects [4]: immunosuppression, hyperglycemia (unknown frequency)
